The source of these data is paper PMC9820531, “Porcine Relaxin but Not Serelaxin Shows Residual Bioactivity after In Vitro Simulated Intestinal Digestion—Clues for the Development of New Relaxin Peptide Agonists Suitable for Oral Delivery” (International Journal of Molecular Sciences, 2022).

Series [1] deals with acute heart failure patients. More on the design: method as in PMID 31433919, PMID 31886953. Conditions: IV infusion 30 μg/kg/day; cited from earlier work.
Details of series [2]: method as in PMID 8257492. The note with it: in vivo; cited from earlier work.
Series [3] has as its target T1, RXFP1 relaxin receptor (Homo sapiens, UniProt Q9HBX9).
T1 construct: a marked, significant rise of cAMP in RXFP-1-expressing THP-1 cells; endogenous in cells; host or cells: THP-1 human monocytic cells (ECACC)
T1 sequence (Q9HBX9 1-757): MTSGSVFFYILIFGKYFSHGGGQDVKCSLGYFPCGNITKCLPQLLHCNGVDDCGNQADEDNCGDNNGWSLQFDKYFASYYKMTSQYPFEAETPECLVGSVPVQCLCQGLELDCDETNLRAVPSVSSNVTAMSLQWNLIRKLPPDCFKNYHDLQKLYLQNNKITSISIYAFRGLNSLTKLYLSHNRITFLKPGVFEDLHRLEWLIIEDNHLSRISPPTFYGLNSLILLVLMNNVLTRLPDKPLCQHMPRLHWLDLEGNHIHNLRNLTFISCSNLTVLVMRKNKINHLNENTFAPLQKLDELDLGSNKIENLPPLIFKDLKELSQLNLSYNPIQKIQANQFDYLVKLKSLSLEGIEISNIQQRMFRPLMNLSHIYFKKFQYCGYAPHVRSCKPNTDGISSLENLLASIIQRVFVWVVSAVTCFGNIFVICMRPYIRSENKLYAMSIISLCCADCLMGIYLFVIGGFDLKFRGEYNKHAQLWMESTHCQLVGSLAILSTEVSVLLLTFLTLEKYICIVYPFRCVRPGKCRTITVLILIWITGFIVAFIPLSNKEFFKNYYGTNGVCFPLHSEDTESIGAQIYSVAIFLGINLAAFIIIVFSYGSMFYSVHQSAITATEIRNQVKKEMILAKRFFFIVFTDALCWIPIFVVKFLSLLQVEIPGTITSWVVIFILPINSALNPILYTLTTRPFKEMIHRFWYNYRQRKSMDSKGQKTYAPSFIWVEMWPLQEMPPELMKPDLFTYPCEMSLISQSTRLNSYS
The experiment in a line: cAMP response by THP-1 cells to SIF digestion products. It is filed as cell-based. Conditions: SIF: pancreatin 500 μg/mL, CaCl2, pH 7, 37 °C, peptide 1.12 μM; digestion products tested at equivalent of 100 ng/mL on THP-1 cells, 15 min; read-out cAMP. As for the experimental part: The effects of duodenal enzyme digestion on the noted serelaxin and pRLX preparations was carried out by addition of a simulated intestinal fluid (SIF), composed of a solution of pancreatin (500 μg/mL), CaCl2 0.75 M (0.1 v/v), pH adjusted to 7 adding dropwise an aqueous solution of NaOH 0.1 M to pRLX and serelaxin solutions. In particular: 0.5 mg/mL aqueous solution of pRLX (MW 5918, 0.084 mM) was added to SIF in a 50 mL Falcon, mixing in a 37 °C bath, to a final pRLX concentration 1.12 μM; 0.2 mL of this solution were sampled and quenched by pH adjusting (0.1 M HCl), at the following times: t = 0”/10”/20”/30”/60”/120”/600”/1800”. […]
Human monocytic THP-1 cells (European Collection of Cell Cultures ECACC, Salisbury, UK) were cultured in suspension in RPMI medium containing 10% fetal calf serum, 250 U/mL penicillin G and 250 μg/mL streptomycin in a 5% CO2 atmosphere at 37 °C. […] Measurements of cAMP were determined by the chemiluminescent HitHunterXP™ cAMP II assay (DiscoverX, Birmingham, UK). […] Since the standard curve was sigmoidal, nonlinear regression was used to extrapolate unknown experimental cAMP values, expressed as nmol/L, according to the manufacturer’s instructions. […] Finally, the values of cAMP in each experimental sample were normalized by the amount of proteins, measured by the micro-BCATM Protein Assay Kit (Pierce, IL, USA) method, and expressed as mg/mL.

In the next series the test system is RXFP-1 receptor. The note with it: serelaxin versus pRLX, similar cellular models; cited from earlier work.
Series [4] concerns the target T1, RXFP1 relaxin receptor. The experiment in a line: cAMP response by THP-1 cells to intact relaxins. It is filed as cell-based. The note with it: intact peptide 100 ng/mL, 15 min stimulation, IBMX 100 μM, forskolin 10^−4 M as maximum, chemiluminescent HitHunterXP cAMP II assay, triplicate points, two independent experiments. As to the method:
Human monocytic THP-1 cells (European Collection of Cell Cultures ECACC, Salisbury, UK) were cultured in suspension in RPMI medium containing 10% fetal calf serum, 250 U/mL penicillin G and 250 μg/mL streptomycin in a 5% CO2 atmosphere at 37 °C. Aliquots containing 6 × 10^5 THP-1 cells in 1 mL PBS were placed in a 24-well plate, added with IBMX (100 μM) to prevent cAMP catabolism, and then incubated with intact serelaxin (100 ng/mL), pRLX (100 ng/mL) or equivalent solutions of their digestion by-products. According to previous studies, cAMP assay was carried out 15 min after addition of the stimuli, i.e., in the midst of the second, sustained cAMP surge upon RXFP1 stimulation. Measurements of cAMP were determined by the chemiluminescent HitHunterXP™ cAMP II assay (DiscoverX, Birmingham, UK). The standard curve was performed in duplicate, and the experimental points in triplicate. Since the standard curve was sigmoidal, nonlinear regression was used to extrapolate unknown experimental cAMP values, expressed as nmol/L, according to the manufacturer’s instructions. Two independent experiments were performed. For positive control, the adenylate cyclase activator forskolin (10^−4 M) was used. Finally, the values of cAMP in each experimental sample were normalized by the amount of proteins, measured by the micro-BCATM Protein Assay Kit (Pierce, IL, USA) method, and expressed as mg/mL.

For the substance serelaxin, the “effects on length of hospitalization, occurrence of cardiovascular death, and disease relapses requiring re-hospitalization in comparison with placebo” value in series [1] is “no substantial effects”. Moreover, the half-life result in series [2] is reported as “about 2 h”. Besides, in the series with RXFP1 relaxin receptor [3], the “SIF exposure time at which cAMP levels dropped down to levels of unstimulated control cells” value turned out to be 120 s; the “SIF exposure time at which the decrease in cAMP production became fully manifest and statistically significant” value was 60 s. In addition, the “affinity for the RXFP-1 receptor relative to the other relaxin” value in the series with RXFP-1 receptor was “higher affinity”. Moreover, the “intracellular cAMP increase as % of the maximal cAMP surge induced by forskolin” value at RXFP1 relaxin receptor [4] is reported as 88.6%.
